Consider one molecule from patent US20250000942A1, “PEPTIDES AND METHODS OF TRANSPLANTATION AND RESTORATIVE ORGAN FUNCTION” (Prince Biotech, LLC, priority 2017, published 2025).

What all share (assay type): cell-based, human
For test [1], the system named is JEG-3 cells. The test can be described thus: ELISA for cytokine secretion by JEG-3 cells. Conditions: JEG-3, serum-free media, 24 hours, P4 1 μg/ml. As to the method: At the end of the experiments the supernatant was collected and analyzed for cytokine levels. The concentrations of tumor necrosis factor alpha (TNF-a), interleukin (IL)-1, IL-8, IL-10, interferon gamma (IFN-γ), transforming growth factor beta 1 (TGF-[…]) and granulocyte macrophage colony-stimulating factor (GM-CSF) were measured using ELISA kits (eBioscience), following the manufacturer's instructions.
Background: In an ELISA, binding on a coated surface is turned into a signal by an enzyme label.

For test [2], the system named is JEG-3 cells. The test can be described thus: Influence of PIF and P4 on expression of HLA class I molecules (flow cytometry, Western blotting, surface antigen quantification). Particulars: 1 μg/ml P4, 24 hours.
Protocol: The cells were then incubated with the HLA-G specific mouse monoclonal antibody MEM-G9m followed by incubation with Alexa Fluor 488 conjugated antibody preparations. Fluorescence was detected by using BD Accuri C6 flow cytometer. The data was analyzed using a Flowing Software V2.5.1. […] Error bar indicates standard deviation from the mean. Statistical analysis was performed with SigmaPlot software. One way Analysis of Variance was employed to test the significance of differences among groups.
The collected cells were further tested for expression for class I HLA molecules by using specific monoclonal antibodies.
Treated and untreated JEG-3 cells, following exposure to test agents were detached, counted, and pelleted as described previously [14]. […] To quantify the final concentration of the proteins we used the Bradford assay following the previously described protocol with some modifications [15]. […] Five μl of each protein sample was then diluted 1:1 with PBS and incubated with the reading reagent at room temperature for 5 min. Finally, the protein concentration was determined using a spectrophotometer, extrapolating each absorbance value over the previously created standard curve. […] A pre-stained standard protein marker (Li-Cor Bioscience) was also loaded onto the gel and run parallel to the protein samples to be analyzed. […]
Test [3] deals with JEG-3 cells. Nature of the test: Effect of PIF and P4 on JEG-3 proteome (2-DE, spot analysis, mass spectrometry). As to the method: Cell lysates and their protein concentration were prepared and assessed as previously described Frozen cell pellets were dissolved in hot lysis buffer (1% SDS, 100 mM Tris-HCl), and sonicated. Five percent of 2-mercaptoethanol was added. Samples were then dissolved in solubilisation buffer (8 M urea, 2.5 M thiourea, 4% 3-[(3-cholamidopropyl) dimethylammonio]-1-propanesuflate, 50 mM DTT, 24 mM spermine tetrachloride) at room temperature for 1 h. The samples were centrifuged at 12000×g for 30 min. To concentrate the protein samples, acetone precipitation was used. Once the supernatant was discarded the protein pellets were washed with a mixture of ice-cold methanol-chloroform and re-suspended in isoelectric focusing buffer (IEF) (8 M urea, 2.5 M thiourea, 4% 3-[(3-cholamidopropyl) dimethylammonio]-1-propanesuflate).
The IPG strips were then focused using an IPGphor system (BioRad, USA). Rehydrated filter wicks were placed between the electrodes and the IPG strip. […] After IEF, strips were rinsed in deionized water, and stored at −80° C. until the second dimensional […].
For second dimensional […], IPG strips were incubated in equilibrium buffer 1 [6 M/l urea, 20% w/v glycerol, 4% w/v SDS, 0.375 M/l Tris-HCL (pH 8.8), 5% 2-mercaptoethanol] for 15 min at room temperature. […] Strips were then rinsed in electrophoresis buffer (60.57 g Tris base, 288.27 g glycine, 20 g SDS, double distilled H2O up to 20 L). The second dimensional analysis was carried out using a Criterion gel system (Bio-Rad). Each strip was placed into the well of a 12% SDS-PAGE gel (Bio-Rad) and sealed with agarosc solution. Electrophoresis was carried out at 50 V for 30 min and following this at 150 V for 4-5 h. The gel was then fixed overnight in fixing solution (50% methanol, 5% acetic acid, 45% water), and stained using the silver staining protocol.
The gels were scanned and analyzed using SameSpots analysis software (Nonlinear dynamics Ltd). Digitized images from 12 silver-stained gels were analyzed for spot detection and quantification. Image analysis included spot detection, editing, background subtraction and spot matching. A master image was then created, and all spots in the other gels were matched to this master image both manually and digitally. The size of a protein, which approximates the volume of the spot, was calculated by using the software. Spots identified as differentially present were excised and analyzed using mass spectrometry (MS) analysis.
Identified spots were manually excised from the 2-DE gels using a disposable sterile scalpel spot cutter and washed in molecular biology grade water. Each spot was then subjected to in gel digestion alkylation, along with tryptic digestion so as to yield peptide fragments for MS analysis following previously described protocols.
Peptide digests were subjected to MS analysis at the sub-picomole level through the use of a matrix assisted laser desorption ionization-time of flight (MALDI-TOF MS) so as to generate peptide mass fingerprinting (PMF). The MALDI-TOF analysis was carried out using a Bruker Daltonics Reflex IV instrument using a linear mode with a laser power attenuation setting at 30, as described previously.
The expression data were pre-processed by mean-centering (by division and medians), and over median normalized data. A heatmap was generated via hierarchical clustering for examining protein expression and treatment (http://cran.r-project.org). The generation of a heatmap for median centered protein expression data with horizontal hierarchical clustering of different proteins utilized the median linkage agglomeration method and vertical hierarchical clustering of treatment conditions, using complete linkage agglomeration. A correlation distance metric was used for clustering data.

[4] abbreviates: P4 1 μg/ml or PIF 200 nM, 24 hours.

With `CC(=O)[C@H]1CC[C@H]2[C@@H]3CCC4=CC(=O)CC[C@]4(C)[C@H]3CC[C@]12C` [P4, Progesterone], in the test on JEG-3 cells [1], the IFN-γ secretion came to 10 pg/mL and the TNF-α secretion stood at 1 pg/mL. Moreover, in the test on JEG-3 cells [1] (PIF 200 nM, mean ± SEM), the GM-CSF secretion came to 310 ± 36.3 pg/mL, the IL-1β secretion came out at 334 ± 27.7 pg/mL, the IL-8 secretion turned out to be 685 ± 58.2 pg/mL and the TGF-β1 secretion came out at 398 ± 32.4 pg/mL. Also, in the test on JEG-3 cells [2], the “levels of HLA-G, -E, -F and -C” value was “increased levels of HLA-G, -E, -F and -C”. In the test with JEG-3 cells [3] (setting [4]), the “Average Normalized Volumes, ATP5B (spot 71)” value was 283.644; the “Average Normalized Volumes, BBB (spot 92)” value was determined as 544.421; the “Average Normalized Volumes, CD59 (spot 51)” value came to 388.079; the “Average Normalized Volumes, CLIC3 (spot 69)” value is 220.958. For the same molecule, in the test on JEG-3 cells [3] (setting [4]), the “Average Normalized Volumes, DCBD2 (spot 67)” value was found to be 413.865; the “Average Normalized Volumes, EGFR (spot 30)” value turned out to be 313.949; the “Average Normalized Volumes, FOXP3 (spot 98)” value turned out to be 1035.457; the “Average Normalized Volumes, HLAG (spot 89)” value is 961.078. Also, in the test with JEG-3 cells [3] (setting [4]), the “Average Normalized Volumes, HS74L (spot 8)” value is on record as 407.206; the “Average Normalized Volumes, HSP71 (spot 2)” value came out at 328.658; the “Average Normalized Volumes, LMNA (spot 34)” value is given as 276.712; the “Average Normalized Volumes, PDIA3 (spot 24)” value stood at 425.280. In the test on JEG-3 cells [3] (setting [4]), the “Average Normalized Volumes, PRDX2 (spot 66)” value is listed as 144.399; the “Average Normalized Volumes, PRGR (spot 55)” value is 277.710; the “Average Normalized Volumes, ZSC21 / TTP (spot 32)” value was determined as 123.015. Further, the “number of differentially expressed proteins up-regulated (of 19)” value in the test on JEG-3 cells [3] (hierarchical clustering, vs control cells) is “five”.
